According to ChEMBL document CHEMBL5321287, “Discovery, Synthesis, and Evaluation of Novel Dual Inhibitors of a Vascular Endothelial Growth Factor Receptor and Poly(ADP-Ribose) Polymerase for BRCA Wild-Type Breast Cancer Therapy” (J Med Chem, 2023):
Active and inactive are the calls of the source. No cut-off for these calls is given here.

Tests used:
MDA-MB-231 [1] = experiment: Antiproliferative activity against human MDA-MB-231 cells assessed as cell growth inhibition
MDA-MB-436 = experiment: Antiproliferative activity against human MDA-MB-436 cells assessed as cell growth inhibition
MDA-MB-231 [2] = experiment: Inhibition of colony formation in human MDA-MB-231 cells at 4 uM incubated for 10 days in presence of 1:1 of compound:Olaparib by crystal violet staining based assay; format: functional, cell-based; settings: time 10.0 day
MDA-MB-231 [3] = experiment: Induction of cell cycle arrest at S phase in human MDA-MB-231 cells at 4 uM by Annexin-V-FLUOS staining based flow cytometry; format: functional
MCF7 [4] = experiment: Induction of cell cycle arrest at S phase in human MCF7 cells at 4 uM by Annexin-V-FLUOS staining based flow cytometry; format: functional
MDA-MB-231 [5] = experiment: Induction of cell cycle arrest at G2/M phase in human MDA-MB-231 cells at 4 uM by Annexin-V-FLUOS staining based flow cytometry; format: functional
MDA-MB-231 [6] = experiment: Induction of cell cycle arrest at G2/M phase in human MDA-MB-231 cells at 4 uM in presence of 1:1 of compound:Olaparib by Annexin-V-FLUOS staining based flow cytometry; format: functional
MCF7 [7] = experiment: Induction of cell cycle arrest at G2/M phase in human MCF7 cells at 4 uM in presence of 1:1 of compound:Olaparib by Annexin-V-FLUOS staining based flow cytometry; format: functional
MDA-MB-231 [8] = experiment: Induction of apoptosis in human MDA-MB-231 cells assessed as increase in cleaved caspase-3 level at 4 uM incubated for 2 days in presence of 1:1 of compound:Olaparib by immunoblot analysis; format: functional, cell-based; settings: time 2.0 day
MDA-MB-231 [9] = experiment: Antimigratory activity against human MDA-MB-231 cells at 4 uM incubated for 1 hr in presence of 1:1 of compound:Olaparib by wound healing assay; format: functional, cell-based
MCF7 [10] = experiment: Antimigratory activity against human MCF7 cells at 4 uM incubated for 1 hr in presence of 1:1 of compound:Olaparib by wound healing assay; format: functional, cell-based
MDA-MB-231 [11] = experiment: Antimigratory activity in human MDA-MB-231 cells assessed as upregulation of E-cadherin level at 4 uM in presence of 1:1 of compound:Olaparib by DAPI staining based immunofluorescence analysis; format: functional, cell-based
MCF7 [12] = experiment: Antimigratory activity in human MCF7 cells assessed as upregulation of E-cadherin level at 4 uM by DAPI staining based immunofluorescence analysis; format: functional, cell-based
MCF7 [13] = experiment: Antimigratory activity in human MCF7 cells assessed as upregulation of E-cadherin level at 4 uM in presence of 1:1 of compound:Olaparib by DAPI staining based immunofluorescence analysis; format: functional, cell-based
MCF7 [14] = experiment: Antimigratory activity in human MCF7 cells assessed as downregulation of MMP-2 level at 4 uM by DAPI staining based immunofluorescence analysis; format: functional, cell-based
MCF7 [15] = experiment: Antimigratory activity in human MCF7 cells assessed as upregulation of E-cadherin level at 4 uM incubated for 2 days by immunoblot analysis; format: functional, cell-based; settings: time 2.0 day
MCF7 [16] = experiment: Antimigratory activity in human MCF7 cells assessed as upregulation of E-cadherin level at 4 uM incubated for 2 days in presence of 1:1 of compound:Olaparib by immunoblot analysis; format: functional, cell-based; settings: time 2.0 day
MDA-MB-231 [17] = experiment: Antimigratory activity in human MDA-MB-231 cells assessed as downregulation of MMP-2 level at 4 uM incubated for 2 days by immunoblot analysis; format: functional, cell-based; settings: time 2.0 day
MDA-MB-231 [18] = experiment: Antimigratory activity in human MDA-MB-231 cells assessed as downregulation of MMP-2 level at 4 uM incubated for 2 days in presence of 1:1 of compound:Olaparib by immunoblot analysis; format: functional, cell-based; settings: time 2.0 day
MCF7 [19] = experiment: Antimigratory activity in human MCF7 cells assessed as downregulation of MMP-2 level at 4 uM incubated for 2 days in presence of 1:1 of compound:Olaparib by immunoblot analysis; format: functional, cell-based; settings: time 2.0 day
MDA-MB-231 [20] = experiment: Downregulation of Olaparib-induced PAR expression in human MDA-MB-231 cells at 4 uM incubated for 2 days by Western blot analysis; format: functional, cell-based; settings: time 2.0 day
MDA-MB-231 [21] = experiment: Induction of hypoxia in human MDA-MB-231 cells assessed as upregulation of HIF-1alpha level at 4 uM incubated for 2 days in presence 1:1 of Olaparib by Western blot analysis; format: functional, cell-based; settings: time 2.0 day
MDA-MB-231 [22] = experiment: Induction of DNA damage in human MDA-MB-231 cells assessed as increase in comet tail length at 4 uM in presence 1:1 of Olaparib by alkaline comet assay; format: functional, cell-based
MCF7 [23] = experiment: Induction of DNA damage in human MCF7 cells assessed as increase in comet tail length at 4 uM in presence 1:1 of Olaparib by alkaline comet assay; format: functional, cell-based
MDA-MB-231 [24] = experiment: Induction of DNA damage in human MDA-MB-231 cells assessed as increase in gamma-H2AX level at 4 uM incubated for 48 hrs by DAPI staining based immunofluorescence analysis; format: functional, cell-based
MCF7 [25] = experiment: Induction of DNA damage in human MCF7 cells assessed as increase in gamma-H2AX level at 4 uM incubated for 48 hrs by DAPI staining based immunofluorescence analysis; format: functional, cell-based
MDA-MB-231 [26] = experiment: Antiinvasive activity against human MDA-MB-231 cells at 4 uM incubated for 12 hrs in presence of 1:1 of compound:Olaparib by transwell assay; format: functional, cell-based
MCF7 [27] = experiment: Antiinvasive activity against human MCF7 cells at 4 uM incubated for 12 hrs in presence of 1:1 of compound:Olaparib by transwell assay; format: functional, cell-based
[28] = biological target: Poly [ADP-ribose] polymerase 1 (Homo sapiens, UniProt P09874); experiment: Inhibition of PARP1 in human MDA-MB-231 cells xenografted in BALB/c nude mouse at 50 mg/kg, po for 14 days in presence of 1:1 of compound:Olaparib by H and E staining based IHC analysis; format: organism-based; settings: time 14.0 day
Chain of Poly [ADP-ribose] polymerase 1 (P09874 whole entry): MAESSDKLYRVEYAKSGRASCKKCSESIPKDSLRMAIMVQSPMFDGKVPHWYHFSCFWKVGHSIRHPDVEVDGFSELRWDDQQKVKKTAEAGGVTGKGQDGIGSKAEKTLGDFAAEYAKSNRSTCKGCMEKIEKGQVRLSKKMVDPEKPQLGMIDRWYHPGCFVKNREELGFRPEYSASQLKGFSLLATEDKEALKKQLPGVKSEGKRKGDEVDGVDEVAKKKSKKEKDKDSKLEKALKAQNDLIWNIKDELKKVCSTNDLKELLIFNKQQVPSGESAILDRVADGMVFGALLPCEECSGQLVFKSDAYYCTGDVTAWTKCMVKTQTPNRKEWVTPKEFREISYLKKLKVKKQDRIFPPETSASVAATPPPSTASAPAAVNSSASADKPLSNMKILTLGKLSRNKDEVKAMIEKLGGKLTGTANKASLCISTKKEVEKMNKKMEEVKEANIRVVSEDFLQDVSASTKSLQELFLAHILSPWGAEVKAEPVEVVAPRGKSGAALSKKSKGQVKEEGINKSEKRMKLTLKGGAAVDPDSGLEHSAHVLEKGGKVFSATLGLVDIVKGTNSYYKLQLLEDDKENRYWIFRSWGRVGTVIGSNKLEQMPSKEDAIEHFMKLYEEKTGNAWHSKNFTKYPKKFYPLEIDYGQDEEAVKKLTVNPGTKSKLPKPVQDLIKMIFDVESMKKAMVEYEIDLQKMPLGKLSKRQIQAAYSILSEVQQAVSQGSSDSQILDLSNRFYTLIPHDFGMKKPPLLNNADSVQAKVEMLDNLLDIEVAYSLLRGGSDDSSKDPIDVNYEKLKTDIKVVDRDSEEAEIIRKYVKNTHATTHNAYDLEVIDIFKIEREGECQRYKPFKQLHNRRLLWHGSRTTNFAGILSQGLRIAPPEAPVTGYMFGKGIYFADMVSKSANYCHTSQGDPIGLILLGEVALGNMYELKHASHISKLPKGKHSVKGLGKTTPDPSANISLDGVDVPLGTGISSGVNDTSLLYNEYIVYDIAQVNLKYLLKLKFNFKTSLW

MDA-MB-231 [29] = experiment: Downregulation of PAR expression in human MDA-MB-231 cells xenografted in BALB/c nude mouse at 25 to 50 mg/kg, po for 14 days in presence of 1:1 of compound:Olaparib by Western blot analysis; format: functional, organism-based; settings: dose 25-50 mg/kg, time 14.0 day
MDA-MB-231 [30] = experiment: Induction of HR DNA repair in human MDA-MB-231 cells xenografted in BALB/c nude mouse assessed as decrease in BRCA1 level at 50 mg/kg, po for 14 days in presence of 1:1 of compound:Olaparib by Western blot analysis; format: functional, organism-based; settings: time 14.0 day
MDA-MB-231 [31] = experiment: Induction of HR DNA repair in human MDA-MB-231 cells xenografted in BALB/c nude mouse assessed as decrease in RAD51 level at 50 mg/kg, po for 14 days in presence of 1:1 of compound:Olaparib by H and E staining based IHC analysis; format: functional, organism-based; settings: time 14.0 day
MDA-MB-231 [32] = experiment: Antimigratory activity in human MDA-MB-231 cells xenografted in lungs of BALB/c nude mouse assessed as increase in E-cadherin level in lungs at 50 mg/kg administered once a day measured after 14 days in presence of 1:1 of compound:Olaparib by IHC analysis; format: functional, organism-based; settings: time 14.0 day
[33] = biological target: Vascular endothelial growth factor receptor 2 (Homo sapiens, UniProt P35968); settings: MDA-MB-231, dose 50.0 mg/kg, route po, time 14.0 day
Chain of Vascular endothelial growth factor receptor 2 (P35968 whole entry): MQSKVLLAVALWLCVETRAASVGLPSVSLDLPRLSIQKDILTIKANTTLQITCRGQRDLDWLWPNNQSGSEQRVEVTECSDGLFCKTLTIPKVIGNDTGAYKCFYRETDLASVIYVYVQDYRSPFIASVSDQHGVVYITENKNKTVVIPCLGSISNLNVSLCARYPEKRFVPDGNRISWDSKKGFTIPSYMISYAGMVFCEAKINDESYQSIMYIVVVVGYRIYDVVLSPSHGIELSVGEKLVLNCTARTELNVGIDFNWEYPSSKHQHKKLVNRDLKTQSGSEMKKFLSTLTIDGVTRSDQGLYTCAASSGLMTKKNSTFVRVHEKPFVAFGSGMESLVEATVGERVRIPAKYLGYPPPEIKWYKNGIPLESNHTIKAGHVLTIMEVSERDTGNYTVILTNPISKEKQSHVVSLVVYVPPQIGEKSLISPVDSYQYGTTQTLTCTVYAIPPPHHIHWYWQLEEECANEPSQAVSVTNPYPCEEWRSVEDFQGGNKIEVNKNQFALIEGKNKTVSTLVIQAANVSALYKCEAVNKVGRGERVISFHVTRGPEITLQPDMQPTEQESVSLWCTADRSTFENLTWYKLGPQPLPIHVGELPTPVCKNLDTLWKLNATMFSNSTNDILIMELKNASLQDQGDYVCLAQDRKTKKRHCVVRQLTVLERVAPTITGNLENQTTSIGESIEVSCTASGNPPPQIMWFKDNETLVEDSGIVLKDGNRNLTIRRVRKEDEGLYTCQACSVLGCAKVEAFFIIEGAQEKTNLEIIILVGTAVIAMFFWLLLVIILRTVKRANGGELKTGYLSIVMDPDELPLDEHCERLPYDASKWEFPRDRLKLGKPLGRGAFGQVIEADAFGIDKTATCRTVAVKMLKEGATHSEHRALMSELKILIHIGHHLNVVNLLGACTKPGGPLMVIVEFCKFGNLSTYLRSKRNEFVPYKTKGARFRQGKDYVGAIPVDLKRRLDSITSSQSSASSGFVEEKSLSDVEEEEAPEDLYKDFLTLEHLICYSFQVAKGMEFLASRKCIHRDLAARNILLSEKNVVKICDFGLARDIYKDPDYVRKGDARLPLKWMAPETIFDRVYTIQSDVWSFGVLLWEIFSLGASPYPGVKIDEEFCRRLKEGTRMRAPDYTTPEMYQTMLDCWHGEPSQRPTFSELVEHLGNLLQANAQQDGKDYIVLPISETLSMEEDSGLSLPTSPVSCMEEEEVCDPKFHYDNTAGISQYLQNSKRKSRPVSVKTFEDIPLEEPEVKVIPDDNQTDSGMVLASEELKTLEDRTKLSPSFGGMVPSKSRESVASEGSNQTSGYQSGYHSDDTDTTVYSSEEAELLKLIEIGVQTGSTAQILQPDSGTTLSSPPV

HUVEC = experiment: cells; settings: Homo sapiens, 48 h

`Cc1ccc(Nc2nccc(N(C)c3ccc4c(C)n(C)nc4c3)n2)cc1S(N)(=O)=O` [PAZOPANIB] was tested, and the IC50 (MDA-MB-231 [1]) was > 10 µM, the IC50 (MDA-MB-436) was > 10 µM and the inhibition (MDA-MB-231 [2]) was “Active”. The Activity (MDA-MB-231 [3]) was “Active”, the Activity (MCF7 [4]) was “Active” and the Activity (MDA-MB-231 [5]) was “Active”. For the same compound, the Activity (MDA-MB-231 [6]) was “Active”, the Activity (MCF7 [7]) was “Active” and the Activity (MDA-MB-231 [8]) was “Active”. For the same compound, the Activity (MDA-MB-231 [9]) was “Active”, the Activity (MCF7 [10]) was “Active” and the Activity (MDA-MB-231 [11]) was “Active”. The Activity (MCF7 [12]) was “Active”, the Activity (MCF7 [13]) was “Active” and the Activity (MCF7 [14]) was “Active”. The Activity (MCF7 [15]) was “Active”, the Activity (MCF7 [16]) was “Active” and the Activity (MDA-MB-231 [17]) was “Active”. The Activity (MDA-MB-231 [18]) was “Active”, the Activity (MCF7 [19]) was “Active” and the Activity (MDA-MB-231 [20]) was “inactive”. The Activity (MDA-MB-231 [21]) was “Active”, the Activity (MDA-MB-231 [22]) was “Active” and the Activity (MCF7 [23]) was “Active”. For the same compound, the Activity (MDA-MB-231 [24]) was “Active”, the Activity (MCF7 [25]) was “Active” and the Activity (MDA-MB-231 [26]) was “Active”. The Activity (MCF7 [27]) was “Active”, the inhibition [28] was “Active” and the Activity (MDA-MB-231 [29]) was “Active”. For the same compound, the Activity (MDA-MB-231 [30]) was “Active”, the Activity (MDA-MB-231 [31]) was “Active” and the Activity (MDA-MB-231 [32]) was “Active”. For the same compound, the inhibition [33] was “Active” and the IC50 (HUVEC) was 4.6 µM.
